Experimental data reported in ChEMBL document CHEMBL1132018, “Design and synthesis of thiol containing inhibitors of matrix metalloproteinases” (Bioorg Med Chem Lett, 1999).
pIC50: −log10 of the molar value.

Tests used:
[1] = molecular target: Matrix metalloproteinase-9 (Rattus norvegicus, UniProt P50282); test: In vitro inhibitory activity against matrix metalloprotease-9
[2] = molecular target: T1, Interstitial collagenase (Homo sapiens, UniProt P03956); test: In vitro inhibitory activity against matrix metalloprotease 1
T1 sequence (P03956 whole entry): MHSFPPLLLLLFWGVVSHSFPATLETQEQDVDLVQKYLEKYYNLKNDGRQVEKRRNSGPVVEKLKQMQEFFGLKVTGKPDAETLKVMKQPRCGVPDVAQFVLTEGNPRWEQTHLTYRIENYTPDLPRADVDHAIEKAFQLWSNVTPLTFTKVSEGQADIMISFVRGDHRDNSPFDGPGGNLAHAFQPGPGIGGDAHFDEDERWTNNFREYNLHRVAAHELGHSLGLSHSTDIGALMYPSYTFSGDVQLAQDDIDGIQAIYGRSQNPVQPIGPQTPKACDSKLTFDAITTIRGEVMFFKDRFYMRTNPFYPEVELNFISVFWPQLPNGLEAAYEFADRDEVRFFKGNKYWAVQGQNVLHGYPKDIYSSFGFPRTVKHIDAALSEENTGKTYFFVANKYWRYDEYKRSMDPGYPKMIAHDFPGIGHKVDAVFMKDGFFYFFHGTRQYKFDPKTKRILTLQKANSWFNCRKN

[3] = molecular target: T1, Interstitial collagenase; test: Inhibition of matrix metalloprotease 1 (MMP 1)
[4] = system: Rattus norvegicus; test: Drug level in plasma was determined 2 hours after administration to 3 rats orally at 75 umol/kg; type: functional, organism-based
[5] = system: Rattus norvegicus; test: Drug level in plasma was determined 4 hours after administration to 3 rats orally at 75 umol/kg; type: functional, organism-based
[6] = system: Rattus norvegicus; test: Drug level in plasma was determined 2 hours after administration to 2 rats orally at 75 umol/kg; type: functional, organism-based
[7] = system: Rattus norvegicus; test: Drug level in plasma was determined 4 hours after administration to 2 rats orally at 75 umol/kg; type: functional, organism-based

Matrix metalloproteinase-9, sequence (P50282 whole entry): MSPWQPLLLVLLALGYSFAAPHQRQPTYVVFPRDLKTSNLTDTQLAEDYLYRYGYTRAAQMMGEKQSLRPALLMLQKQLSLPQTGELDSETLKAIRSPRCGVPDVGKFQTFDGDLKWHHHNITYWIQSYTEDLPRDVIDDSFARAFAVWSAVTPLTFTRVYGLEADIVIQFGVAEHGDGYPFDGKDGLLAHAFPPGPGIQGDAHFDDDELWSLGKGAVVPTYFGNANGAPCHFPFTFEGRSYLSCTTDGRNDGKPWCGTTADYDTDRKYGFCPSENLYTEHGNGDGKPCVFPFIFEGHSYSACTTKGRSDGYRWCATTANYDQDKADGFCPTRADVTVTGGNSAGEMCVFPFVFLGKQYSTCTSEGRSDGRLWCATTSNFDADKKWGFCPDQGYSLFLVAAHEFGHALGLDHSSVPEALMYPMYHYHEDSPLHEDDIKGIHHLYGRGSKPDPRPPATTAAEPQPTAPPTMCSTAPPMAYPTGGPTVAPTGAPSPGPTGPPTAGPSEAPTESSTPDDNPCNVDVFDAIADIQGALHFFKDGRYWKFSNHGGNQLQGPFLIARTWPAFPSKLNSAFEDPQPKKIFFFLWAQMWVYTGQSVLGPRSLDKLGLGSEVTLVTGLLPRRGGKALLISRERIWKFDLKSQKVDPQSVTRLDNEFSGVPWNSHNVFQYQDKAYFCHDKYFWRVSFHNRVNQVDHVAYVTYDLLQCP

SMILES	pIC50 [1]	pIC50 [2]	further results
CCO[C@H]1CC[C@@](CS)(C(=O)N[C@@H](Cc2cccs2)C(=O)Nc2ccccc2)CC1	7.38	6.02	–
CCO[C@H]1CC[C@@](CS)(C(=O)N[C@@H](Cc2ccccc2)C(=O)Nc2ccccc2)CC1 (stereo in doubt; 13)	7.31	5.91	–
CCO[C@H]1CC[C@@](CS)(C(=O)N[C@@H](Cc2ccc(Cl)cc2)C(=O)Nc2ccccc2)CC1	7.18	5.71	–
CCO[C@H]1CC[C@@](CS)(C(=O)N[C@@H](Cc2cccnc2)C(=O)Nc2ccccc2)CC1	7.68	6.25	–
CNC(=O)[C@H](Cc1ccccc1)NC(=O)C1(CS)CCCCC1	6.46	5.30	–
CCO[C@H]1CC[C@@](CS)(C(=O)N[C@@H](Cc2ccccc2)C(=O)NC(C)C)CC1	7.40	6.17	–
CCO[C@H]1CC[C@@](CS)(C(=O)N[C@@H](Cc2ccc(O)cc2)C(=O)Nc2ccccc2)CC1	7.85	6.13	–
CCO[C@H]1CC[C@@](CS)(C(=O)N[C@@H](Cc2ccc(OC)cc2)C(=O)Nc2ccccc2)CC1	7.70	–	pIC50 [3]: 5.98
CNC(=O)[C@H](Cc1ccccc1)NC(=O)[C@]1(CS)CC[C@H](C(C)(C)C)CC1	< 5.00	–	–
CCO[C@H]1CC[C@@](CS)(C(=O)N[C@@H](Cc2ccccc2)C(=O)NC)CC1	7.74	6.15	–
CCOc1ccc(C[C@H](NC(=O)[C@]2(CS)CC[C@H](OCC)CC2)C(=O)Nc2ccccc2)cc1	7.47	5.49	–
CCO[C@H]1CC[C@@](CS)(C(=O)N[C@@H](Cc2ccccc2)C(=O)Nc2ccccn2)CC1	6.92	5.46	–
CCO[C@H]1CC[C@@](CS)(C(=O)N[C@@H](Cc2ccccc2)C(=O)Nc2ccc(F)cc2)CC1	7.28	5.67	–

Further lines, with some results ahead:

pIC50 [1]	pIC50 [2]	SMILES	further results
7.10	5.23	CCO[C@H]1CC[C@@](CS)(C(=O)N[C@@H](Cc2ccccc2)C(=O)Nc2ccc(Cl)cc2)CC1	–
< 5.00	–	CCO[C@H]1CC[C@@](CS)(C(=O)N[C@@H](Cc2ccccc2)C(=O)Nc2ccccc2)CC1 (stereo in doubt; 14)	–
7.62	6.25	CCO[C@H]1CC[C@@](CS)(C(=O)N[C@@H](Cc2ccccc2)C(=O)NC2CCCC2)CC1	–
7.10	5.53	CCO[C@H]1CC[C@@](CS)(C(=O)N[C@@H](Cc2ccccc2)C(=O)NC2CCCCC2)CC1	–
6.20	5.22	CCCO[C@H]1CC[C@@](CS)(C(=O)N[C@@H](Cc2ccccc2)C(=O)NC)CC1	–
< 5.00	–	CCC[C@H]1CC[C@@](CS)(C(=O)N[C@@H](Cc2ccccc2)C(=O)NC)CC1	–
7.46	6.96	CNC(=O)[C@H](Cc1ccccc1)NC(=O)[C@]1(CS)CC[C@H](OC)CC1	–
6.97	6.17	CNC(=O)[C@H](Cc1ccccc1)NC(=O)[C@]1(CS)CC[C@H](C(F)(F)F)CC1	–
7.08	5.20	CCO[C@H]1CC[C@@](CS)(C(=O)N[C@@H](Cc2ccc(F)cc2)C(=O)Nc2ccccc2)CC1	–
7.59	6.08	CCO[C@H]1CC[C@@](CS)(C(=O)N[C@@H](Cc2ccccc2)C(=O)NCc2ccccc2)CC1	Plasma concentration [4]: 837 nM; Plasma concentration [5]: 491 nM
7.09	< 5.00	CCO[C@H]1CC[C@@](CS)(C(=O)N[C@@H](Cc2ccccc2)C(=O)Nc2ccc(OC(F)(F)F)cc2)CC1	–
7.34	5.90	CCO[C@H]1CC[C@@](CS)(C(=O)N[C@@H](Cc2ccccc2)C(=O)Nc2ccc(OC)cc2)CC1	–
< 5.00	–	CNC(=O)[C@H](Cc1ccccc1)NC(=O)[C@@]1(CS)CCCC(OC)C1 (stereo partly specified)	–
7.77	6.87	CCO[C@H]1CC[C@@](CS)(C(=O)N[C@@H](Cc2ccccc2)C(=O)Nc2cccnc2)CC1	Plasma concentration [6]: 253 nM; Plasma concentration [7]: 289 nM
7.20	5.88	CCO[C@H]1CC[C@@](CS)(C(=O)N[C@@H](Cc2ccccc2)C(=O)Nc2ccc(N(C)C)cc2)CC1	–
